The experiment addresses Escherichia coli DNA gyrase A/B tetramer (Escherichia coli, UniProt P0AES4+P0AES6). The experiment is described as follows: DNA gyrase supercoiling activity fluorescence polarisation assay. The experiment is classed as biochemical. The method, boiled down: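 5 nM gyrase supercoils 130 μg/ml relaxed triplex-sequence plasmid with 0.3 mM ATP in Tris pH 7.5/KCl/MgCl2/spermidine buffer, 0.8% DMSO, ~30 min at ambient temperature, 5-10 compound concentrations. Quenched with 40 nM BODIPY-FL triplex probe at pH 3.5; anisotropy read after 60 min (485/535 nm). IC50 by nonlinear regression against no-compound and 5 uM ciprofloxacin controls.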
Background: Polarisation of emitted light reports the rotation of a fluorescent probe.
Escherichia coli DNA gyrase A/B tetramer, sequence (P0AES4 whole entry, one chain of several): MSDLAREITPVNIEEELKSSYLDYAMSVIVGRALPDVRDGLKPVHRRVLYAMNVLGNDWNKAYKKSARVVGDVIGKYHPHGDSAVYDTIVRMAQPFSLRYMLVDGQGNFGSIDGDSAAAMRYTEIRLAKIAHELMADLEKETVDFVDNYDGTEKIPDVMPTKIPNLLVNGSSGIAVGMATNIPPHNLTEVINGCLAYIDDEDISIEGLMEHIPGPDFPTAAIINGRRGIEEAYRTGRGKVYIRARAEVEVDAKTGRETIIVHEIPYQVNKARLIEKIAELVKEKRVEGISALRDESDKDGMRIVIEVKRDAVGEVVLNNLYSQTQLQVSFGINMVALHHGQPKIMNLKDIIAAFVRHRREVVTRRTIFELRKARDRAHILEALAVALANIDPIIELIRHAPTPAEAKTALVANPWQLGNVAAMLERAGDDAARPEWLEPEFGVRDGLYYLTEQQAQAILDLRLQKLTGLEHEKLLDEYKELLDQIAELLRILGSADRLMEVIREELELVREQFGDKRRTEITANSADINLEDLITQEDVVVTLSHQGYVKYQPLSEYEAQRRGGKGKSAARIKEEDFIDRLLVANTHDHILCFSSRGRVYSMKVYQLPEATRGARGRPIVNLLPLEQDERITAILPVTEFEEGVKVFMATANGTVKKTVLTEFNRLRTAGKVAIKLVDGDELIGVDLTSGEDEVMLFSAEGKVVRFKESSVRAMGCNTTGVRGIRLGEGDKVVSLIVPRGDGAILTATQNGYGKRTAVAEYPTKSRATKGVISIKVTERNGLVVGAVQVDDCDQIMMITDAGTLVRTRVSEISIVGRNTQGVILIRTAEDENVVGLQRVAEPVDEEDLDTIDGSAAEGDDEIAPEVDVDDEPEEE
What is called IC50 is the concentration needed to halve the response being measured. Read a high IC50 as weaker potency in that assay. Regarding `C[C@@H]1CN2c3ccc(C#Cc4ccncc4)cc3CC3(C(=O)NC(=O)NC3=O)[C@H]2[C@H](C)O1` (relative stereo) [Example 3, (2R,4S,4aS)-rel-2,4-Dimethyl-8-(pyridin-4-ylethynyl)-1,2,4,4a-tetrahydro-2′H,6H-spiro[1,4-oxazino[4,3-a]quinoline-5,5′-pyrimidine]-2′,4′,6′(1′H,3′H)-trione], the midpoint of inhibition, the IC50, lay at 2480 nM.

`COC(=O)N/N=C(\C)c1cc2c(c(F)c1F)N1C[C@@H](C)O[C@@H](C)[C@@H]1C1(C2)C(=O)NC(=O)NC1=O` (racemic) [Example 49, Methyl (2E)-2-{1-[(2R,4S,4aS)-rel-9,10-difluoro-2,4-dimethyl-2′,4′6′-trioxo-1,1′,2,3′,4,4′,4a,6′-octahydro-2′H,6H-spiro[1,4-oxazino[4,3-a]quinoline-5,5′-pyrimidin]-8-yl]ethylidene}hydrazinecarboxylate]: inhibition was half-maximal at 450 nM (IC50).

`C[C@H]1CN2c3c(cc(C#Cc4cnccn4)c(F)c3F)CC3(C(=O)NC(=O)NC3=O)[C@@H]2[C@@H](C)O1` (relative stereo) [Example 20, (2S,4R,4aR)-rel-9,10-Difluoro-2,4-dimethyl-8-(pyrazin-2-ylethynyl)-1,2,4,4a-tetrahydro-2′H,6H-spiro[1,4-oxazino[4,3-a]quinoline-5,5′-pyrimidine]-2′,4′,6′(1′H,3′H)-trione] displayed an IC50 of 490 nM.

`C/C(=N\Nc1ccccc1)c1cc2c(c(F)c1F)N1C[C@@H](C)O[C@@H](C)[C@@H]1C1(C2)C(=O)NC(=O)NC1=O` (relative stereo) [Example 58, (2R,4S,4aS)-rel-9,10-Difluoro-2,4-dimethyl-8-[(1E)-1-(2-phenylhydrazinylidene)ethyl]-1,2,4,4a-tetrahydro-2′H,6H-spiro[1,4-oxazino[4,3-a]quinoline-5,5′-pyrimidine]-2′,4′,6′(1′H,3′H)-trione] had an IC50 of 980 nM. Compared with the last compound, the IC50 is about 2-fold higher.

In turn, `C[C@@H]1CN2c3c(F)cc(C#Cc4cccs4)cc3CC3(C(=O)NC(=O)NC3=O)[C@H]2[C@H](C)O1` (relative stereo) [Example 40, (2R,4S,4aS)-rel-10-Fluoro-2,4-dimethyl-8-(thiophen-2-ylethynyl)-1,2,4,4a-tetrahydro-2′H,6H-spiro[1,4-oxazino[4,3-a]quinoline-5,5′-pyrimidine]-2′,4′,6′(1′H,3′H)-trione] yielded a 50% inhibitory concentration (IC50) of 1140 nM.

Compound `C[C@@H]1CN2c3c(cc(C(=O)NC4CCOCC4)c(F)c3F)CC3(C(=O)NC(=O)NC3=O)[C@H]2[C@H](C)O1` (relative stereo) [Example 66, (2R,4S,4aS)-rel-9,10-Difluoro-2,4-dimethyl-2′,4′,6′-trioxo-N-(tetrahydro-2H-pyran-4-yl)-1,1′,2,3′,4,4′,4a,6′-octahydro-2′H,6H-spiro[1,4-oxazino[4,3-a]quinoline-5,5′-pyrimidine]-8-carboxamide] gave a half-inhibitory concentration (IC50) of 5860 nM. This IC50 lies about 5.1-fold higher than the previous one.

`C/C(=N\Nc1ncccn1)c1cc2c(c(F)c1F)N1C[C@@H](C)O[C@@H](C)[C@@H]1C1(C2)C(=O)NC(=O)NC1=O` (relative stereo) [Example 59, (2R,4S,4aS)-rel-9,10-Difluoro-2,4-dimethyl-8-{(1E)-1-[2-(pyrimidin-2-yl)hydrazinylidene]ethyl}-1,2,4,4a-tetrahydro-2′H,6H-spiro[1,4-oxazino[4,3-a]quinoline-5,5′-pyrimidine]-2′,4′,6′(1′H,3′H)-trione]: 1640 nM corresponded to half-maximal inhibition (IC50). This IC50 is about 3.6-fold lower than that of the compound before.

For the compound `C[C@@H]1CN2c3c(cc(C(=O)NC4CCN(C(=O)OC(C)(C)C)CC4)c(F)c3F)CC3(C(=O)NC(=O)NC3=O)[C@H]2[C@H](C)O1` (relative stereo) [Example 67, tert-Butyl 4-({[(2R,4S,4aS)-rel-9,10-difluoro-2,4-dimethyl-2′,4′,6′-trioxo-1,1′,2,3′,4,4′,4a,6′-octahydro-2′H,6H-spiro[1,4-oxazino[4,3-a]quinoline-5,5′-pyrimidin]-8-yl]carbonyl}amino)piperidine-1-carboxylate], the midpoint of inhibition, the IC50, lay at 12000 nM. This IC50 is about 7.3-fold higher than that of the compound before.

As to `C[C@@H]1CN2c3ccc(NS(=O)(=O)N4CCOCC4)cc3CC3(C(=O)NC(=O)NC3=O)[C@H]2[C@H](C)O1` (relative stereo) [Example 75, N-[(2R,4S ,4aS)-rel-2,4-Dimethyl-2′,4′,6′-trioxo-1,1′,2,3′,4,4′,4a,6′-octahydro-2′H,6H-spiro[1,4-oxazino[4,3-a]quinoline-5,5′-pyrimidin]-8-yl]morpholine-4-sulfonamide], half-maximal inhibition (IC50) required 660 nM.

As to `C/C(=N\N1CC(=O)NC1=O)c1cc2c(c(F)c1F)N1C[C@@H](C)O[C@@H](C)[C@@H]1C1(C2)C(=O)NC(=O)NC1=O` (relative stereo) [Example 52, (2R,4S,4aS)-rel-8-[(1E)-N-(2,4-Dioxoimidazolidin-1-yl)ethanimidoyl]-9,10-difluoro-2,4-dimethyl-1,2,4,4a-tetrahydro-2′H,6H-spiro[1,4-oxazino[4,3-a]quinoline-5,5′-pyrimidine]-2′,4′,6′(1′H,3′H)-trione], the IC50 turned out to be 12800 nM.

In turn, `C[C@@H]1CN2c3cc(F)c(C#Cc4cccnc4)cc3CC3(C(=O)NC(=O)NC3=O)[C@H]2[C@H](C)O1` (relative stereo) [Example 32, (2R,4S,4aS)-rel-9-Fluoro-2,4-dimethyl-8-(pyridin-3-ylethynyl)-1,2,4,4a-tetrahydro-2′H,6H-spiro[1,4-oxazino[4,3-a]quinoline-5,5′-pyrimidine]-2′,4′,6′(1′H,3′H)-trione] registered an IC50 of 2240 nM.

Take `C[C@@H]1CN2c3c(cc(C#Cc4ccc(-c5ccn[nH]5)s4)c(F)c3F)CC3(C(=O)NC(=O)NC3=O)[C@H]2[C@H](C)O1` (relative stereo) [Example 17, (2R,4S,4aS)-rel-9,10-Difluoro-2,4-dimethyl-8-{[5-(1H-pyrazol-5-yl)thiophen-2-yl]ethynyl}-1,2,4,4a-tetrahydro-2′H,6H-spiro[1,4-oxazino[4,3-a]quinoline-5,5′-pyrimidine]-2′,4′,6′(1′H,3′H)-trione]: the IC50 is 1840 nM. This IC50 and that of the compound before are within 1.5-fold of each other.

In the case of `CNC(=O)Nc1ccc2c(c1)CC1(C(=O)NC(=O)NC1=O)[C@H]1[C@H](C)O[C@H](C)CN21` (relative stereo) [Example 78, 1-[(2R,4S,4aS)-rel-2,4-Dimethyl-2′,4′,6′-trioxo-1,1′,2,3′,4,4′,4a,6′-octahydro-2′H,6H-spiro[1,4-oxazino[4,3-a]quinoline-5,5′-pyrimidin]-8-yl]-3-methylurea], half-maximal inhibition (IC50) was put at 8650 nM. This IC50 is about 4.7-fold higher than that of the compound before.

Turning to `C[C@H]1CN2c3c(cc(C#Cc4cc5ccccc5s4)c(F)c3F)CC3(C(=O)NC(=O)NC3=O)[C@@H]2[C@@H](C)O1` (racemic) [Example 11, (2S,4R,4aR)-rel-8-(1-Benzothiophen-2-ylethynyl)-9,10-difluoro-2,4-dimethyl-1,2,4,4a-tetrahydro-2′H,6H-spiro[1,4-oxazino[4,3-a]quinoline-5,5′-pyrimidine]-2′,4′,6′(1′H,3′H)-trione], half-maximal inhibition (IC50) was put at 5490 nM.

Regarding `C[C@@H]1CN2c3c(cc(C(=O)NC4CCNC4)c(F)c3F)CC3(C(=O)NC(=O)NC3=O)[C@H]2[C@H](C)O1` (relative stereo) [Example 70, (2R,4S,4aS)-rel-9,10-Difluoro-2,4-dimethyl-2′,4′,6′-trioxo-N-(pyrrolidin-3-yl)-1,1′,2,3′,4,4′,4a,6′-octahydro-2′H,6H-spiro[1,4-oxazino[4,3-a]quinoline-5,5′-pyrimidine]-8-carboxamide], the IC50 came to 2910 nM.

`C[C@H]1CN2c3c(cc(C#Cc4ncccn4)c(F)c3F)CC3(C(=O)NC(=O)NC3=O)[C@@H]2[C@@H](C)O1` (relative stereo) [Example 19, (2S,4R,4aR)-rel-9,10-Difluoro-2,4-dimethyl-8-(pyrimidin-2-ylethynyl)-1,2,4,4a-tetrahydro-2′H,6H-spiro[1,4-oxazino[4,3-a]quinoline-5,5′-pyrimidine]-2′,4′,6′(1′H,3′H)-trione] had an IC50 of 520 nM.

For `C[C@@H]1CN2c3cc(F)c(C#Cc4nncs4)cc3CC3(C(=O)NC(=O)NC3=O)[C@H]2[C@H](C)O1` (relative stereo) [Example 24, (2R,4S,4aS)-rel-9-Fluoro-2,4-dimethyl-8-(1,3,4-thiadiazol-2-ylethynyl)-1,2,4,4a-tetrahydro-2′H,6H-spiro[1,4-oxazino[4,3-a]quinoline-5,5′-pyrimidine]-2′,4′,6′(1′H,3′H)-trione], the midpoint of inhibition, the IC50, lay at 350 nM. The IC50 values of the last two compounds are within 1.5-fold of each other.

On to `C[C@H]1CN2c3c(cc(C#C[Si](C)(C)C)c(F)c3F)CC3(C(=O)NC(=O)NC3=O)[C@@H]2[C@@H](C)O1` (relative stereo) [Example 6, (2S,4R,4aR)-rel-9,10-Difluoro-2,4-dimethyl-8-[(trimethylsilyl)ethynyl]-1,2,4,4a-tetrahydro2′H,6H-spiro[1,4-oxazino[4,3-a]quinoline-5,5′-pyrimidine]-2′,4′,6′(1′H,3′H)-trione], for which it took 3270 nM to reach half-maximal inhibition (IC50).

`C[C@@H]1CN2c3cc(F)c(C#Cc4cncs4)cc3CC3(C(=O)NC(=O)NC3=O)[C@H]2[C@H](C)O1` (relative stereo) [Example 27, (2R,4S,4 aS)-rel-9-Fluoro-2,4-dimethyl-8-(1,3-thiazol-5-ylethynyl)-1,2,4,4a-tetrahydro-2′H,6H-spiro[1,4-oxazino[4,3-a]quinoline-5,5′-pyrimidine]-2′,4′,6′(1′H,3′H)-trione]: 830 nM corresponded to half-maximal inhibition (IC50).

`C[C@@H]1CN2c3c(F)cc(C#Cc4cc5ccccc5s4)cc3CC3(C(=O)NC(=O)NC3=O)[C@H]2[C@H](C)O1` (racemic) [Example 41, (2R,4S,4aS)-rel-8-(1-Benzothiophen-2-ylethynyl)-10-fluoro-2,4-dimethyl-1,2,4,4a-tetrahydro-2′H,6H-spiro[1,4-oxazino[4,3-a]quinoline-5,5′-pyrimidine]-2′,4′,6′(1′H,3′H)-trione]: inhibition was half-maximal at 7160 nM (IC50). This IC50 lies about 8.6-fold higher than the previous one.

On to `Cc1nnc(C#Cc2cc3c(cc2F)N2C[C@@H](C)O[C@@H](C)[C@@H]2C2(C3)C(=O)NC(=O)NC2=O)s1` (relative stereo) [Example 25, (2R,4S,4aS)-rel-9-Fluoro-2,4-dimethyl-8-[(5-methyl-1,3,4-thiadiazol-2-yl)ethynyl]-1,2,4,4a-tetrahydro-2′H,6H-spiro[1,4-oxazino[4,3-a]quinoline-5,5′-pyrimidine]-2′,4′,6′(1′H,3′H)-trione], for which it took 870 nM to reach half-maximal inhibition (IC50). Against the preceding compound, the IC50 is about 8.2-fold lower.

The values are drawn from patent US20100261719A1, “CHEMICAL COMPOUNDS” (priority 2007, published 2010).
